One test addresses Human Cot (Homo sapiens (Human), UniProt P41279). Description: High Throughput Cot Biochemical Assay. The following applies: Cot HTRF (TR-FRET) biochemical assay. A general note: Time-resolved FRET reads energy transfer from a long-lived donor to a nearby acceptor.
The next test has as its system TNFα. Nature of the test: Cot Monocyte TNFα Cell Based Assay.
Where [1] appears, read: Homo sapiens, Monocyte, read-out: EC50 TNF, LPS-stimulated human monocytes, TNFα.
Where [2] appears, read: read-out: EC50 TNF, LPS-stimulated human monocytes, TNFα.

SMILES strings stand for the structures. Like-named read-outs stand apart in the source and are kept apart here.

Sequence of Human Cot (P41279 30-397): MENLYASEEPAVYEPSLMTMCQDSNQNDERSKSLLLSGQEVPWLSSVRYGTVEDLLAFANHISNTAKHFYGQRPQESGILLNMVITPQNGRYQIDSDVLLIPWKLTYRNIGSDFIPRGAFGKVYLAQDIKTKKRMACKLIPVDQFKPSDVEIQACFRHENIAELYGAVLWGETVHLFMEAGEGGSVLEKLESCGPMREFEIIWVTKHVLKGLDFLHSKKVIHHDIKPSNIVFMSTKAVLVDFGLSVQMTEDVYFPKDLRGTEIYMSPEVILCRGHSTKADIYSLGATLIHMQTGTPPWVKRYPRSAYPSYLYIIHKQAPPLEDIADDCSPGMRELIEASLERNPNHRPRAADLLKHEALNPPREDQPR

Broadly, the IC50 is the point on the concentration scale where inhibition reaches its midpoint. Broadly, the EC50 is the concentration giving half of the maximal effect. For `Cn1ncc2cccc([C@H](Nc3cc(Cl)c4ncc(C#N)c(NCC(C)(C)C)c4c3)c3cn(C4(C(F)F)CC4)nn3)c21` [Example 603, (S)-8-chloro-6-(((1-(1-(difluoromethyl)cyclo-propyl)-1H-1,2,3-triazol-4-yl)(1-methyl-1H-indazol-7-yl)methyl)amino)-4-(neopentyl-amino)quinoline-3-carbonitrile], at Human Cot (IC50 HTRF), the IC50 was determined as 7 nM. For the same compound, the 50% effective concentration (EC50) in the test with TNFα (setting [1]) is 107 nM.
For `Cn1ncc2cccc([C@H](Nc3cc(C#N)c4ncc(C#N)c(NCC(C)(C)C)c4c3)c3cn(C4(C(F)F)CC4)nn3)c21` [Example 605], at Human Cot (read-out: IC50 HTRF), the IC50 was 3 nM. Moreover, in the test on TNFα (setting [2]), the EC50 amounted to 30 nM.
`CCc1ncccc1[C@H](Nc1cc(C#N)c2ncc(C#N)c(NCC(C)(C)C)c2c1)c1cn(C2(C(F)F)CC2)nn1` [Example 606, (S)-6-(((1-{1-(difluoromethyl)-cyclopropyl)-1H-1,2,3-triazol-4-yl)(2-ethylpyridin-3-yl)methyl)amino)-4-(neopentylamino)quinoline-3,8-dicarbonitrile] gave a half-inhibitory concentration (IC50) against Human Cot (IC50 HTRF) of 2 nM. In addition, the EC50 in the test on TNFα (setting [1]) was 27 nM.
As to `Cc1nc(F)ccc1[C@@H](Nc1cc(Cl)c2ncc(C#N)c(NC3[C@H]4CCC[C@H]34)c2c1)c1cn(C2(C(F)(F)F)CC2)nn1` (stereo partly drawn) [Example 607, 4-(((lR,5S)-bicyclo[3.1.0]hexan-6-yl)amino)-8-chloro-6-(((S)-(6-fluoro-2-methylpyridin-3-yl)(1-(1-(trifluoromethyl)cyclopropyl)-1H-1,2,3-triazol-4-yl)methyl)amino)quinoline-3-carbonitrile], the 50% inhibitory concentration (IC50) on Human Cot (read-out: IC50 HTRF) is 21 nM. For the same compound, the EC50 in the test on TNFα (setting [2]) turned out to be 225 nM.
On the same counts, the results for `Cc1nc(F)ccc1[C@H](Nc1cc(Cl)c2ncc(C#N)c(N[C@H]3[C@@H]4COC[C@@H]43)c2c1)c1cn(C2(C(F)(F)F)CC2)nn1` [Example 608, 4-(((lR,5S,6r)-3-oxabicyclo[3.1.0]hexan-6-yl)amino)-8-chloro-6-(((S)-(6-fluoro-2-methylpyridin-3-yl)(1-(1-(trifluoromethyl)cyclo-propyl)-1H-1,2,3-triazol-4-yl)methyl)amino)-quinoline-3-carbonitrile] are 42 nM and 314 nM.
As to `Cn1ncc2c([C@H](Nc3cc(C#N)c4ncc(C#N)c(NCC(C)(C)C)c4c3)c3cn(C4CC4)nn3)cccc21` [Example 609, (S)-6-(((1-cyclopropyl-1H-1,2,3-triazol-4-yl)(1-methyl-1H-indazol-4-yl)methyl)amino)-4-(neopentylamino)quinoline-3,8-dicarbonitrile], the IC50 against Human Cot (IC50 HTRF) is 2 nM. Also, in the test with TNFα (setting [1]), the EC50 stood at 46 nM.
For `Cc1nc(F)ccc1[C@H](Nc1cc(C#N)c2ncc(C#N)c(NCC(C)(C)C)c2c1)c1cn(C2(CO)CC2)nn1` [Example 610, (S)-6-(((6-fluoro-2-methylpyridin-3-yl)(1-(1-(hydroxymethyl)cyclopropyl)-1H-1,2,3-triazol-4-yl)methyl)amino)-4-(neopentylamino)quinoline-3,8-dicarbonitrile] the same measures were 2 nM and 199 nM.
On the same counts, the results for `Cc1nc(F)ccc1[C@H](Nc1cc(Cl)c2ncc(C#N)c(N[C@@H](c3ccccc3)C3CC3)c2c1)c1cn(C2(C(F)(F)F)CC2)nn1` [Example 611, 8-chloro-4-(((R)-cyclopropyl(phenyl)methyl)-amino)-6-(((S)-(6-fluoro-2-methylpyridin-3-yl)(1-(1-(trifluoromethyl)cyclopropyl)-1H-1,2,3-triazol-4-yl)methyl)amino)quinoline-3-carbonitrile] are 20 nM and 229 nM.
For `Cc1nc(F)ccc1[C@H](Nc1cc(Cl)c2ncc(C#N)c(NCC(C)(C)c3ccccc3)c2c1)c1cn(C2(C(F)(F)F)CC2)nn1` [Example 612, (S)-8-chloro-6-(((6-fluoro-2-methylpyridin-3-yl)(1-(1-(trifluoromethyl)cyclopropyl)-1H-1,2,3-triazol-4-yl)methyl)amino)-4-((2-methyl-2-phenylpropyl)amino)quinoline-3-carbonitrile] the same measures were 11 nM and 171 nM.
`Cc1nc(F)ccc1[C@H](Nc1cc(C#N)c2ncc(C#N)c(NCC(C)(C)c3ccccc3)c2c1)c1cn(C2(C(F)(F)F)CC2)nn1` [Example 614, (S)-6-(((6-fluoro-2-methylpyridin-3-yl)(1-(1-(trifluoromethyl)cyclopropyl)-1H-1,2,3-triazol-4-yl)methyl)amino)-4-((2-methyl-2-phenylpropyl)amino)quinoline-3,8-dicarbonitrile] yielded a 50% inhibitory concentration (IC50) on Human Cot (IC50 HTRF) of 9 nM. In addition, in the test with TNFα (setting [1]), the concentration for a half-maximal effect (EC50) was 154 nM.
For `Cc1ncsc1[C@H](Nc1cc(Cl)c2ncc(C#N)c(NCC(C)(C)C)c2c1)c1cn(C2(C(F)F)CC2)nn1` [Example 619, (R)-8-chloro-6-(((1-(1-(difluoromethyl)-cyclopropyl)-1H-1,2,3-triazol-4-yl)(4-methylthiazol-5-yl)methyl)amino)-4-(neopentylamino)quinoline-3-carbonitrile] the same measures were 7 nM and 189 nM.
On the same counts, the results for `Cc1scnc1[C@H](Nc1cc(Cl)c2ncc(C#N)c(NCC(C)(C)C)c2c1)c1cn(C2(C(F)F)CC2)nn1` [Example 620, (S)-8-chloro-6-(((1-(1-(difluoromethyl)cyclo-propyl)-1H-1,2,3-triazol-4-yl)(5-methylthiazol-4-yl)methyl)amino)-4-(neopentylamino)quinoline-3-carbonitrile] are 102 nM and 1000 nM.
For `Cc1nc(F)ccc1[C@H](Nc1cc(C#N)c2ncc(C#N)c(NCC(C)(C)C)c2c1)c1cn(C2(C3CC3)CC2)nn1` [Example 621, (S)-6-(((1-([1,1′-bi(cyclopropan)]-1-yl)-1H-1,2,3-triazol-4-yl)(6-fluoro-2-methylpyridin-3-yl)methyl)amino)-4-(neopentylamino)quinoline-3,8-dicarbonitrile] the same measures were 1 nM and 12 nM.
Regarding `Cc1nc(F)ccc1[C@H](Nc1cc(C#N)c2ncc(C#N)c(NCC(C)(C)C)c2c1)c1cn([C@@H]2C[C@@H]2F)nn1` [Example 622, 6-(((S)-(6-fluoro-2-methylpyridin-3-yl)(1-((1R,2S)-2-fluorocyclopropyl)-1H-1,2,3-triazol-4-yl)methyl)amino)-4-(neopentylamino)quinoline-3,8-dicarbonitrile], the midpoint of inhibition at Human Cot (IC50 HTRF), the IC50, lay at 1 nM. Besides, the half-maximal effective concentration (EC50) in the test on TNFα (setting [1]) was found to be 24 nM.
As for `Cc1nc(F)ccc1[C@H](Nc1cc(C#N)c2ncc(C#N)c(NCC(C)(C)C)c2c1)c1cn([C@@H](C)CF)nn1` [Example 623, 6-(((S)-(6-fluoro-2-methylpyridin-3-yl)(1-((S)-1-fluoropropan-2-yl)-1H-1,2,3-triazol-4-yl)methyl)amino)-4-(neopentylamino)quinoline-3,8-dicarbonitrile], the IC50 against Human Cot (IC50 HTRF) amounted to 1 nM. In addition, in the test with TNFα (setting [1]), the half-maximal effective concentration (EC50) turned out to be 27 nM.
`Cc1nc(F)ccc1[C@H](Nc1cc(Cl)c2ncc(C#N)c(NCC(C)(C)C)c2c1)c1cn(C2(C(=O)O)CC(F)(F)C2)nn1` [Example 624, (S)-1-(4-(((8-chloro-3-cyano-4-(neopentylamino)quinolin-6-yl)amino)(6-fluoro-2-methylpyridin-3-yl)methyl)-1H-1,2,3-triazol-1-yl)-3,3-difluorocyclobutane-1-carboxylic acid] came in with an IC50 against Human Cot (IC50 HTRF) of 11 nM. Moreover, the concentration for a half-maximal effect (EC50) in the test with TNFα (setting [1]) is 1000 nM.
On the same counts, the results for `Cc1nc(F)ccc1[C@H](Nc1cc(C#N)c2ncc(C#N)c(NCC(C)(C)C)c2c1)c1cn(C(C)(C)CF)nn1` [Example 625, (S)-6-(((1-{1-fluoro-2-methylpropan-2-yl)-1H-1,2,3-triazol-4-yl)(6-fluoro-2-methylpyridin-3-yl)methyl)amino)-4-(neopentylamino)quinoline-3,8-dicarbonitrile] are 2 nM and 26 nM.
With `CC(C)(C)CNc1c(C#N)cnc2c(C#N)cc(N[C@H](c3cn(C4(C(F)(F)F)CC4)nn3)c3ccc(F)c4cnccc34)cc12` [Example 626], the IC50 at Human Cot (read-out: IC50 HTRF) came out at 5 nM. In the test on TNFα (setting [2]), the EC50 worked out at 35 nM.
For `CC(C)(C)CNc1c(C#N)cnc2c(C#N)cc(N[C@H](c3cn(C4(C(F)(F)F)CC4)nn3)c3ccc(F)c4ncccc34)cc12` [Example 627, (S)-6-(((8-fluoroquinolin-5-yl)(1-(1-(trifluoro-methyl)cyclopropyl)-1H-1,2,3-triazol-4-yl)methyl)amino)-4-(neopentylamino)quinoline-3,8-dicarbonitrile], at Human Cot (IC50 HTRF), the concentration for half-maximal inhibition (IC50) was 4 nM. For the same compound, in the test with TNFα (setting [1]), the concentration giving a half-maximal response (EC50) worked out at 46 nM.
`CC(C)(C)CNc1c(C#N)cnc2c(Cl)cc(N[C@H](c3cn(C4(C(F)(F)F)CC4)nn3)c3cncc4ccccc34)cc12` [Example 628, (S)-8-chloro-6-((isoquinolin-4-yl(1-(1-(trifluoromethyl)cyclopropyl)-1H-1,2,3-triazol-4-yl)methyl)amino)-4-(neopentylamino)quinoline-3-carbonitrile] registered an IC50 on Human Cot (IC50 HTRF) of 450 nM. The EC50 with TNFα (setting [1]) was found to be 1000 nM.
On the same counts, the results for `CC(C)(C)CNc1c(C#N)cnc2c(Cl)cc(N[C@@H](c3cnc4ccccc4c3)c3cn(C4(C(F)(F)F)CC4)nn3)cc12` [Example 629, (S)-8-chloro-4-(neopentylamino)-6-((quinolin-3-yl(1-(1-(trifluoromethyl)cyclopropyl)-1H-1,2,3-triazol-4-yl)methyl)amino)quinoline-3-carbonitrile] are 181 nM and 1000 nM.
On the same counts, the results for `Cn1ccc2c([C@H](Nc3cc(C#N)c4ncc(C#N)c(NCC(C)(C)C)c4c3)c3cn(C4(C(F)(F)F)CC4)nn3)cccc2c1=O` [Example 631, (S)-6-(((2-methyl-1-oxo-1,2-dihydroisoquinolin-5-yl)(1-(1-(trifluoromethyl)-cyclopropyl)-1H-1,2,3-triazol-4-yl)methyl)amino)-4-(neopentylamino)quinoline-3,8-dicarbonitrile] are 2 nM and 32 nM.

For the origin of these results see US11066414B2, “Cot modulators and methods of use thereof” (Gilead Sciences, Inc., priority 2015, dated 2021).
